Here are results for 10 compounds from patent US20240217961A1 (MONOPTEROS THERAPEUTICS, INC., priority 2021, published 2024).

Data set [1] can be described thus: Dynamic Vapor Sorption (DVS) at 25° C. Particulars: for DVS Result 95% RH: 0(120 min)-95% RH(180 min), dm/dt 0.002%.
A short description of data set [2]: Hygroscopicity: storage at 92.5% RH for 1 week, weight loss by TGA. Particulars: for 92.5% RH for 1W (by TGA,%): weight loss by TGA at 145° C. after 92.5% RH for 1 week; for 92.5% RH for 1W, observation: after 92.5% RH for 1 week, Deliqu means deliquescent. The data set is classed as physicochemical.
The nature of data set [3]: Solubility at 25° C., 24 h, in SGF, FaSSIF, FeSSIF and water. The data set is classed as physicochemical.
Data set [4] can be described thus: Excipient compatibility study of milled API in binary mixtures (40° C./75% R.H. open, 60° C. closed; HPLC, XRPD, appearance). The data set is classed as physicochemical. The method, then:
Samples were set up at each of these two conditions: 40° C./75% R.H. open, and 60° ° C., closed. Three sampling time points (initial, 2 weeks, and 4 weeks) are specified in Table 15.
The API was set up as a control at each time point and each condition. For the pure excipients, only one bulk sample was set up at each condition. They were analyzed at the initial time point and at other time points if degradation of the active substance was observed. For the 15 binary mixtures, triplicate samples were set up at each time point/condition. Two samples were analyzed for purity and XRPD test, and the third one was kept as a contingency sample. The appearance and XRPD of samples under each condition were recorded at each time point.
The binary mixture was set up in duplicate.
Excipient blank controls: Each excipient blank was weighed into a 40 mL clear glass vial as excipient blank control. The excipient blank was set up as a single sample.
API control: Approximate: 13.8 mg of API was weighed into a 40 mL clear glass vial. The API control was set up in duplicate.
All the samples for open condition storage were put into an uncapped clear glass vial. The mouth of vials were covered by aluminum foil with pinholes, to avoid cross-contamination, and then stored in the stability chamber. The samples were stored at each condition 40° C./75% R.H. open and 60° C. close conditions and monitored for physical appearance, XRPD, impurities/related substances and assay at each time point, respectively.
All samples at 40° C./75% R.H., and 60° C. for 2 weeks and 4 weeks, were pulled out and cooled to room temperature for physical appearance, total related substances (TRS) and assay analysis. The diluent was accurately added into 40 ml vials and then the solution was sonicated for 10 minutes to facilitate dissolution of the API. Then 1 mL solution was taken out and centrifuged at 14000 rpm for 5 min for twice to separate some undissolved excipients, and then the concentration of supernatants were analyzed by HPLC instrument. The recovery and TRS results of excipient compatibility study at 40° C./75% R.H., and 60° C. are shown in Table 9, and the results of the complete impurity content and XRPD result are listed in Table 7.

Setting [5] is: 70% RH, 25° C., method 50-90-0-50% RH, dm/dt = 0.01%.

“Also recorded” adds a separate entry of the source. Where only a bound is given, the exact number is not on record here.

`CN1CCCC(CN2c3ccccc3Sc3ccccc32)C1.O=P(O)(O)O` (stereo not shown) [Phosphate]: the “DVS Result 95% RH” value in data set [1] (25° C.) was found to be 5.18%. Further, in data set [2], the “92.5% RH for 1W (by TGA,%)” value is 1.3% at.
On to `CN1CCCC(CN2c3ccccc3Sc3ccccc32)C1.O=C(O)CC(O)C(=O)O` (stereo not shown) [Malate], for which the “92.5% RH for 1W, observation” value in data set [2] is recorded as “Deliqu”.
Regarding `O=S(=O)(O)O` [Sulfate], in data set [2], the “92.5% RH for 1W, observation” value was “Discoloration,; also recorded: Agglomerate” and the “92.5% RH for 1W (by TGA,%)” value was 2.3% at 145 °C.
As for Fumarate, the “Solubility 24 h” value in data set [3] (FaSSIF, pH 6.5) is 9400 µg/mL; in data set [3] (FaSSIF, pH 6.5, target concentration 2 mg/mL) it was > 2000 µg/mL; in data set [3] (FeSSIF, pH 5.0), 3400 µg/mL; in data set [3] (FeSSIF, pH 5.0, target concentration 2 mg/mL), > 2000 µg/mL; in data set [3] (H2O), 3800 µg/mL; in data set [3] (H2O, target concentration 2 mg/mL), > 2000 µg/mL. Moreover, the “Solubility 24 h” value in data set [3] (SGF, pH 2.0) is 7500 µg/mL; in data set [3] (SGF, pH 2.0, target concentration 2 mg/mL), > 2000 µg/mL. In addition, the “pH of solubility sample” value was 3.63 in data set [3] (FaSSIF, pH 6.5, 24 h); 5.48 in data set [3] (FaSSIF, pH 6.5, 24 h, target concentration 2 mg/mL); 4.52 in data set [3] (FeSSIF, pH 5.0, 24 h); 4.89 in data set [3] (FeSSIF, pH 5.0, 24 h, target concentration 2 mg/mL); 3.49 in data set [3] (H2O, 24 h); 3.80 in data set [3] (H2O, 24 h, target concentration 2 mg/mL). The “pH of solubility sample” value came out at 2.60 in data set [3] (SGF, pH 2.0, 24 h) and 1.99 in data set [3] (SGF, pH 2.0, 24 h, target concentration 2 mg/mL). For the same compound, the “DVS Result 95% RH” value in data set [1] (25° C.) is reported as 1.29%. The “DVS Desorp (%)” value in data set [1] (setting [5]) is on record as 0.13%. Besides, the “DVS Sorption (%)” value in data set [1] (setting [5]) came out at 0.13%. Besides, the “92.5% RH for 1W (by TGA,%)” value in data set [2] came out at 0.3% at.
Take `N[C@@H](CCC(=O)O)C(=O)O` [Glutamate]: the “DVS Result 95% RH” value in data set [1] (25° C.) amounted to 16.84%. Further, the “92.5% RH for 1W (by TGA,%)” value in data set [2] is 2.4% at.
`CN1CCCC(CN2c3ccccc3Sc3ccccc32)C1.O=C(O)CCCCC(=O)O` (stereo not shown) [Adipate]: the “92.5% RH for 1W (by TGA,%)” value in data set [2] is on record as 0.6% at.
`CN1CCCC(CN2c3ccccc3Sc3ccccc32)C1.Cl` (stereo not shown) [Hydrochloride, reference compound]: the “moisture absorbed by DVS” value in data set [1] (25° C. and 95% RH for about 5 hours) came out at 16.9 wt %. Further, the “moisture absorbed at 80% RH” value in data set [1] (80% RH at 25° C.) is reported as 0.85%. Besides, the “behaviour under long term humidity conditions” value in data set [2] (25° C., 92.5% RH for one week) was “deliquescent”. For the same compound, in data set [2], the “92.5% RH for 1W, observation” value was “Deliqu”.
Take `CN1CCCC(CN2c3ccccc3Sc3ccccc32)C1.O=C(O)CCC(=O)O` (stereo not shown) [API control]: the “Assay (%)” value is given as 100.82% in data set [4] (40° C./75% RH open, 2 weeks); 100.08% in data set [4] (40° C./75% RH open, 4 weeks); 99.70% in data set [4] (60° C. close, 2 weeks); 102.38% in data set [4] (60° C. close, 4 weeks); 100.00% in data set [4] (Initial 0 day). In addition, the “TRS (%) (total related substances)” value in data set [4] (40° C./75% RH open, 2 weeks) was found to be 0.18%; in data set [4] (40° C./75% RH open, 4 weeks), 0.12%; in data set [4] (60° C. close, 2 weeks), 0.18%; in data set [4] (60° C. close, 4 weeks), 0.13%; in data set [4] (Initial 0 day), 0.14%. For the same compound, the XRPD result is reported as “No change” in data set [4] (40° C./75% RH open, 2 weeks); “No change” in data set [4] (40° C./75% RH open, 4 weeks); “No change” in data set [4] (60° C. close, 2 weeks); “No change” in data set [4] (60° C. close, 4 weeks).
`CN1CCCC(CN2c3ccccc3Sc3ccccc32)C1.O=C(O)C(O)C(O)C(=O)O` (stereo not shown) [Tartarate Pattern I]: in data set [2], the “92.5% RH for 1W, observation” value is “Deliqu”.
For (S)-mepazine succinate salt, in data set [1] (25° C.), the “DVS Result 95% RH” value was determined as 1.87%. The “92.5% RH for 1W (by TGA,%)” value in data set [2] worked out at 0.4% at.
